Like-named read-outs stand apart in the source and are kept apart here.
Legend:
[1] = tested on: Shiga-like toxin-1 (Stx-1), HeLa cells; assay: cells; format: cell-based, human; conditions: for EC50: Homo sapiens, HeLa, read-out: EC50 (Stx-1 intoxication assay)
[2] = Pharmacokinetic study in mice, Retro-2.1 in PLGA–PEG–PLGA hydrogel, 25 mg/kg SC; format: in vivo; conditions: for half-life: flip-flop pharmacokinetics, read-out: Thalf (apparent elimination half-life) (converted); for Cmax: mice plasma
[3] = mouse, in vivo, ip, 50 mg/kg
[4] = in vivo; conditions: female, BALB/c, mouse, ip, 50 mg/kg
[5] = Aqueous solubility; format: physicochemical
[6] = Characterisation and stability of Retro-2.1 formulation in PEG–PLA micelles; format: physicochemical
Protocol: Retro-2.1 was encapsulated in PEG–PLA micelles using the thin-film hydration method, also known as the solvent casting method. This method allowed us to dissolve 4.55 mg/mL of the drug in 26.4 mg/mL of PEG–PLA solution, with an encapsulation yield of 91% and a drug loading of 15%, as determined with HPLC analysis using a calibration curve (Figure S1). […] As previously described, including for Genexol®-PM, these micelles are likely to be spherical. Although the zeta potential of these micelles was not determined in this study, PEG–PLA micelles are widely described to have a neutral to slightly negatively charged surface. […] However, about 35% of the drug load precipitated upon storage at room temperature for 24 h (Figure S3). Every subsequent formulation was therefore stored at −20 °C and thawed at 4 °C before use.
(§1) Dynamic light scattering experiments were performed using a Vasco Flex particle size analyzer equipped with a 450 nm laser. Data were recorded at 20 °C using a refractive index of 1.331 and a solvent viscosity of 0.982 cP. For each sample, 10 acquisitions were realized using a noise limit of 1% and 200 channels with a time interval of 1 µs. All samples were analyzed at a concentration of 10 mg/mL in 4 mL glass vials (Lab File, Wheaton) unless otherwise noted.
In a round-bottom flask, Retro-2.1 (92 mg, 211 µmol) and PEG–PLA (528 mg, 132 µmol) were dissolved in acetone (20 mL). The solvent was removed under reduced pressure to yield a transparent pale-yellow polymeric film, which was rehydrated with saline (15 mL) at 40 °C. Next, 2M NaOH solution in water was added to reach a pH of 7. The volume was adjusted to 20 mL with saline, and the solution was sterile-filtered on a 0.2 µm membrane (Millex®, Duluth, GA, USA) into several 6 mL sterile vials and stored at −20 °C until further use. The Retro-2.1 concentration was determined using HPLC after dilution of the solution in MeOH. Drug loadings and encapsulation efficiencies were calculated using the following formula:(1) encapsulation yield=100*mdrug dissolved/mdrug addeddrug loading=100* mdrug/mdrug+mpolymer
(§2) A sample of the formulation was placed in a 500 µL Eppendorf tube and stored at −20 °C, 4 °C or room temperature (20–25 °C). At each timepoint, the sample was centrifuged (15,000× g, 5 min, 4 °C) and the Retro-2.1 concentration in the supernatant was determined using HPLC.

[7] = Characterisation and stability of Retro-2.1 formulation in PLGA–PEG–PLGA; format: physicochemical
Protocol: The thin-film rehydration technique was also used to formulate Retro-2.1 in PLGA–PEG–PLGA, using acetone as a dissolution solvent and saline as a rehydration vehicle. As previously described, the polymer was prepared as a 20% (w/v) solution in saline. This solution was able to stably dissolve 3.25 mg/mL of Retro-2.1, with an encapsulation yield of 98% and a drug loading of 1.9%. […] Of note, above 42 °C, the polymer aggregated and separated from water, which is in accordance with other reported polymers with similar structures. The formulation was stable for at least 13 days when stored at 4 °C. However, like the formulation in PEG–PLA, the formulation in PLGA–PEG–PLGA lost 20% of its payload upon storage at 25 °C for 24 h (Figure S10). Subsequent formulations were therefore freshly prepared and stored at 4 °C before use.
as §1
In a round-bottom flask, Retro-2.1 (59.8 mg, 137 µmol) and PLGA–PEG–PLGA (3.00 g, 545 µmol) were dissolved in acetone (15 mL). The solvent was removed under reduced pressure to yield a translucent pale-yellow polymeric film, which was further dried under vacuum for 4 h. The film was rehydrated with saline (15 mL) at room temperature, and 2 M NaOH solution in water was added to reach a pH of 7. The solution was sterile-filtered on a 0.2 µm membrane (Millex®) into 6 mL sterile vials and stored at 4 °C until further use. The Retro-2.1 concentration was determined using HPLC after dilution of the solution in MeCN. Drug loadings and encapsulation efficiencies were calculated, as described before.
as §2

[8] = mouse, in vivo, 2 mg/kg
[9] = mouse
[10] = human
[11] = tested on: Shiga-like toxin-1 (Stx-1), HeLa cells; conditions: cited from earlier work
[12] = in vivo; conditions: female, BALB/c, mouse, 2 mg/kg; for half-life: Thalf (elimination half-life)
[13] = SC injection of 25 mg/kg of Retro-2.1 in PLGA–PEG–PLGA, mice
[14] = female, BALB/c, mouse, plasma, SC injection of 25 mg/kg of Retro-2.1 in PLGA–PEG–PLGA, mice
[15] = female, BALB/c, mouse, SC injection of 25 mg/kg of Retro-2.1 in PLGA–PEG–PLGA

In the case of CN1c2ccc(F)cc2C(=O)N(c2ccccc2)C1c1ccc(-c2csc(CO)n2)s1 (centres unmarked) [compound 3], the “fold less potent than Retro-2.1” value [1] is reported as 80 fold, the EC50 [1] is reported as 7.38 µM and the AUCextra [2, 13] is reported as 12%. For the same molecule, the AUC [2, 14] was 621 ng·h/mL, the MRT [2, 14] was 21 h and the Tmax [2, 14] was 2 h. For the same molecule, the half-life [2, 14] was 15 h, the Cmax [2, 15] was 0.0393 µg/mL and the AUCextra ([3]; female, BALB/c) was 0.4%. The Thalf ([3]; female, BALB/c) was 3.7 h, the AUC [4] was 6700 ng·h/mL and the Cmax [4] was 2.76 µg/mL. It also gave an MRT [4] of 3.43 h and a Tmax [4] of 0.25 h.

In the case of Cc1nc(-c2ccc(C3N(C)c4ccc(F)cc4C(=O)N3c3ccccc3)s2)cs1 (centres unmarked) [Retro-2.1, 6-fluoro-1-methyl-2-(5-(2-methylthiazol-4-yl)thiophen-2-yl)-3-phenyl-2,3-dihydroquinazolin-4(1H)-1], the EC50 [1] is reported as 0.09 µM, the AUCextra [2, 13] is reported as 17% and the VSS [2, 13] is reported as 456 L/kg. The AUC [2, 14] was 1420 ng·h/mL, the CL/F [2, 14] was 294 mL/min/kg and the MRT [2, 14] was 26 h. The Tmax [2, 14] was 2 h, the half-life [2, 14] was 19 h and the Cmax [2, 15] was 0.0752 µg/mL. The “duration of sustained release” value ([2]; mice, 25 mg/kg SC in PLGA–PEG–PLGA) was “at least 48 h”, the “signs of pain or acute toxicity” value ([2]; mice, 25 mg/kg SC in PLGA–PEG–PLGA, over 48 h) was “no sign of pain or acute toxicity was observed” and the solubility [5] was < 1 µg/mL. The “formulation stable for” value ([6]; PEG–PLA formulation stored at 4 °C and −20 °C) was “at least 48 h”, the “drug load precipitated upon storage” value ([6]; PEG–PLA formulation, room temperature, 24 h) was “about 35%” and the drug loading ([6]; PEG–PLA micelles) was 15%. For the same molecule, the encapsulation yield ([6]; PEG–PLA micelles) was 91%, the “micelle mean diameter (DLS)” value ([6]; Retro-2.1-loaded PEG–PLA micelles) was 22.5 nm and the “drug concentration dissolved in polymer solution” value ([6]; in 26.4 mg/mL of PEG–PLA solution, thin-film hydration, HPLC) was 4550 µg/mL. The “drug concentration stably dissolved in polymer solution” value ([7]; 20% (w/v) PLGA–PEG–PLGA in saline) was 3250 µg/mL, the drug loading ([7]; PLGA–PEG–PLGA) was 1.9% and the encapsulation yield ([7]; PLGA–PEG–PLGA) was 98%. For the same molecule, the “formulation stable for” value ([7]; PLGA–PEG–PLGA formulation stored at 4 °C) was “at least 13 days”, the “payload lost upon storage” value ([7]; PLGA–PEG–PLGA formulation, 25 °C, 24 h) was 20% and the “temperature at which formulation starts solidifying” value ([7]; PLGA–PEG–PLGA formulation, inverted vial method) was 31 °C. The “micelle mean diameter (DLS)” value ([7]; Retro-2.1-loaded PLGA–PEG–PLGA micelles) was 24.1 nm, the AUCextra ([8]; female, BALB/c, ip) was 2.1% and the “Thalf (elimination half-life)” value ([8]; female, BALB/c, ip) was 6.7 h. The VSS ([8]; female, BALB/c, ip) was 26.3 L/kg, the “plasmatic concentration 7 h following injection” value ([8]; female, BALB/c, ip) was 21 nM and the AUCextra ([8]; female, BALB/c, iv) was 2.3%. The “Thalf (elimination half-life)” value ([8]; female, BALB/c, iv) was 5 h, the “plasmatic concentration 7 h following injection” value ([8]; female, BALB/c, iv) was 6 nM and the “signs of pain or acute toxicity” value [8] was “no sign of pain or acute toxicity was observed”. The AUCextra ([3]; female, BALB/c) was 0.1%, the Thalf ([3]; female, BALB/c) was 3.3 h and the VSS ([3]; female, BALB/c) was 2.8 L/kg. The “plasma detectability 24 h after injection” value [3] was “barely detectable”, the “signs of pain or acute toxicity” value [3] was “no apparent sign of pain or acute toxicity was observed” and the Non-NADPH degradation [9] was < 5%. The Clint ([9]; microsomes) was 460 μL.min^−1.mg of protein^−1, the Non-NADPH degradation [10] was < 5% and the Clint ([10]; microsomes) was 27.8 μL.min^−1.mg of protein^−1. The “Metabolic stability at t = 45 min (remaining)” value ([10]; microsomes, 0.75 h) was 27.4%, the “times more potent than Retro-2” value [11] was “about 100 times” and the EC50 ([11]; read-out: EC50 against the Shiga toxin) was 0.102 µM. For the same molecule, the AUC ([12]; ip) was 322 ng·h/mL, the CL/F ([12]; ip) was 103 mL/min/kg and the Cmax ([12]; ip) was 0.304 µg/mL. The MRT ([12]; ip) was 4.2 h, the Tmax ([12]; ip) was 5 min and the half-life ([12]; ip) was 5 h. It also gave an AUC ([12]; iv) of 213 ng·h/mL, a Cmax ([12]; iv) of 0.328 µg/mL and an MRT ([12]; iv) of 2.9 h. It also gave a Tmax ([12]; iv) of 5 min, a Vd ([12]; iv) of 27.5 L/kg and a clearance ([12]; iv) of 157 mL/min/kg. The half-life ([12]; iv) was 6.7 h, the AUC [4] was 18500 ng·h/mL and the CL/F [4] was 45 mL/min/kg. For the same molecule, the Cmax [4] was 50.6 µg/mL, the MRT [4] was 1 h and the Tmax [4] was 0.0833 h.

Reference: article PMC9735573 (International Journal of Molecular Sciences, 2022)
